The record followed here is patent publication US20250145633A1, “SUBSTITUTED FURANOPYRIMIDINE COMPOUNDS AS PDE1 INHIBITORS” (Dart NeuroScience, LLC, priority 2017, published 2025).

Molecules are shown by their SMILES.

The first assay has as its target human PDE1B enzyme (Homo sapiens (Human), UniProt Q01064). In words: IMAP TR-FRET PDE1B enzymatic assay. The format is biochemical. The settings on record: negative log of half-maximal molar inhibitory concentration; 200 nM FAM-cAMP; values given as bins. The method, boiled down: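 Full-length GST-tagged human PDE1B (250 pg/well) in IMAP BSA buffer with 10 U/ml calmodulin and 2.5 mM CaCl2; compound pre-incubated 5 min at room temperature, then 200 nM (final) FAM-cAMP for 30 min. IMAP binding reagent/Tb added, 1 h; TR-FRET 520/490 ratio read. IC50 from sigmoidal dose-response fit.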
(TR-FRET usually uses a lanthanide donor and a delayed reading to cut background.)
For `Cc1oc2ncnc(NC3(C)CC3)c2c1C(=O)N1CC(O)(c2ccc(F)cc2)C1` [Example 101, 3-(4-Fluorophenyl)-1-{6-methyl-4-[(1-methylcyclopropyl)amino]furo[2,3-d]pyrimidine-5-carbonyl}azetidin-3-ol], the “PDE1b (pIC50)” value is greater than 8.
The same measure, in the same setting: the value for `COC1(c2ccccc2)CN(C(=O)c2c(C)oc3ncnc(NC4(C)CC4)c23)C1` [Example 103, 5-(3-Methoxy-3-phenylazetidine-1-carbonyl)-6-methyl-N-(1-methylcyclopropyl)furo[2,3-d]pyrimidin-4-amine] was greater than 8; that for `Cc1oc2ncnc(NC3(C)CC3)c2c1C(=O)N1CCOC(c2ccc(F)cc2)C1` (centres unmarked) [Example 122, 5-[2-(4-Fluorophenyl)morpholine-4-carbonyl]-6-methyl-N-(1-methylcyclopropyl)furo[2,3-d]pyrimidin-4-amine] was greater than 8.

Staying with this assay, now noted: negative log of half-maximal molar inhibitory concentration; 200 nM FAM-cAMP; values given as bins; read-out: PDE1b (pIC50) (converted).
As to `COCCNC(=O)c1c(C)oc2ncnc(NC3(C)CC3)c12` [Example 95, N-(2-Methoxyethyl)-6-methyl-4-[(1-methylcyclopropyl)amino]furo[2,3-d]pyrimidine-5-carboxamide], the IC50 is 100 to 1000 nM.
`Cc1oc2ncnc(NC3(C)CC3)c2c1C(=O)NCCN1CCOCC1` [Example 96, 6-Methyl-4-[(1-methylcyclopropyl)amino]-N-[2-(morpholin-4-yl)ethyl]furo[2,3-d]pyrimidine-5-carboxamide]: the IC50 was 10 to 100 nM.
On the same count and under the same terms, next, `Cc1nc(CNC(=O)c2c(C)oc3ncnc(NC4(C)CC4)c23)cs1` [Example 97, 6-M ethyl-N-[(2-methyl-1,3-thiazol-4-yl)methyl]-4-[(1-methylcyclopropyl)amino]furo[2,3-d]pyrimidine-5-carboxamide]: 10 to 100 nM; `Cc1oc2ncnc(NC3(C)CC3)c2c1C(=O)NCc1ccc[nH]1` [Example 98, 6-Methyl-4-[(1-methylcyclopropyl)amino]-N-(1H-pyrrol-2-ylmethyl)furo[2,3-d]pyrimidine-5-carboxamide]: 10 to 100 nM; `Cc1oc2ncnc(NC3(C)CC3)c2c1C(=O)NCc1ccn(C)n1` [Example 99, 6-Methyl-N-[(1-methyl-1H-pyrazol-3-yl)methyl]-4-[(1-methylcyclopropyl)amino]furo[2,3-d]pyrimidine-5-carboxamide]: 10 to 100 nM.
For the molecule `Cc1oc2ncnc(NC3(C)CC3)c2c1C(=O)NCc1cocn1` [Example 100, 6-Methyl-4-[(1-methylcyclopropyl)amino]-N-(1,3-oxazol-4-ylmethyl)furo[2,3-d]pyrimidine-5-carboxamide], the IC50 is 10 to 100 nM.
Still for that read-out and setting: next, `Cc1oc2ncnc(NC3(C)CC3)c2c1C(=O)NCc1ccnn1C` [Example 102, 6-Methyl-N-[(1-methyl-1H-pyrazol-5-yl)methyl]-4-[(1-methylcyclopropyl)amino]furo[2,3-d]pyrimidine-5-carboxamide]: 10 to 100 nM.
The same measure, in the same setting: the value for `Cc1oc2ncnc(NC3(C)CC3)c2c1C(=O)NC1(C)CCC1` [Example 104, 6-Methyl-N-(1-methylcyclobutyl)-4-[(1-methylcyclopropyl)amino]furo[2,3-d]pyrimidine-5-carboxamide] was 10 to 100 nM; that for `Cc1oc2ncnc(NC3(C)CC3)c2c1C(=O)NC1(C)COC1` [Example 105, 6-Methyl-4-[(1-methylcyclopropyl)amino]-N-(3-methyloxetan-3-yl)furo[2,3-d]pyrimidine-5-carboxamide] was 10 to 100 nM.
On the same count and under the same terms, next, `Cc1oc2ncnc(NC3(C)CC3)c2c1C(=O)NC1CCOC1` (centres unmarked) [Example 106, 6-Methyl-4-[(1-methylcyclopropyl)amino]-N-(oxolan-3-yl)furo[2,3-d]pyrimidine-5-carboxamide]: 10 to 100 nM; `Cc1oc2ncnc(NC3(C)CC3)c2c1C(=O)NC1(C)CCOC1` (centres unmarked) [Example 107, 6-Methyl-4-[(1-methylcyclopropyl)amino]-N-(3-methyloxolan-3-yl)furo[2,3-d]pyrimidine-5-carboxamide]: 10 to 100 nM.
Turning to `Cc1oc2ncnc(NC3(C)CC3)c2c1C(=O)NC1CCOCC1` [Example 108, 6-Methyl-4-[(1-methylcyclopropyl)amino]-N-(oxan-4-yl)furo[2,3-d]pyrimidine-5-carboxamide], the IC50 was 10 to 100 nM.
For the molecule `Cc1oc2ncnc(NC3(C)CC3)c2c1C(=O)NC1(C)CCOCC1` [Example 109, 6-Methyl-4-[(1-methylcyclopropyl)amino]-N-(4-methyloxan-4-yl)furo[2,3-d]pyrimidine-5-carboxamide], the IC50 is 10 to 100 nM.
The same measure, in the same setting: the value for `Cc1oc2ncnc(NC3(C)CC3)c2c1C(=O)NC1CCOC(C)(C)C1` (centres unmarked) [Example 110, N-(2,2-Dimethyloxan-4-yl)-6-methyl-4-[(1-methylcyclopropyl)amino]furo[2,3-d]pyrimidine-5-carboxamide] was 10 to 100 nM; that for `Cc1oc2ncnc(NC3(C)CC3)c2c1C(=O)NCc1cccn1C` [Example 111, 6-Methyl-N-[(1-methyl-1H-pyrrol-2-yl)methyl]-4-[(1-methylcyclopropyl)amino]furo[2,3-d]pyrimidine-5-carboxamide] was 10 to 100 nM; that for `Cc1nc(CNC(=O)c2c(C)oc3ncnc(NC4(C)CC4)c23)c(C)o1` [Example 112, N-[(Dimethyl-1,3-oxazol-4-yl)methyl]-6-methyl-4-[(1-methylcyclopropyl)amino]furo[2,3-d]pyrimidine-5-carboxamide] was 10 to 100 nM.
On the same count and under the same terms, next, `Cc1cc(CNC(=O)c2c(C)oc3ncnc(NC4(C)CC4)c23)no1` [Example 113, 6-Methyl-N-[(5-methyl-1,2-oxazol-3-yl)methyl]-4-[(1-methylcyclopropyl)amino]furo[2,3-d]pyrimidine-5-carboxamide]: 10 to 100 nM.
Still for that read-out and setting: the value for `Cc1oc2ncnc(NC3(C)CC3)c2c1C(=O)N[C@H]1[C@@H]2COC[C@@H]21` [Example 114, 6-Methyl-4-[(1-methylcyclopropyl)amino]-N-[(1R,5S,6R)-3-oxabicyclo[3.1.0]hexan-6-yl]furo[2,3-d]pyrimidine-5-carboxamide] was 10 to 100 nM; that for `Cc1oc2ncnc(NC3(C)CC3)c2c1C(=O)NCc1cncn1C` [Example 115, 6-Methyl-N-[(1-methyl-1H-imidazol-5-yl)methyl]-4-[(1-methylcyclopropyl)amino]furo[2,3-d]pyrimidine-5-carboxamide] was 100 to 1000 nM.
As for `Cc1oc2ncnc(NC3(C)CC3)c2c1C(=O)NCc1cn(C)cn1` [Example 116, 6-Methyl-N-[(1-methyl-1H-imidazol-4-yl)methyl]-4-[(1-methylcyclopropyl)amino]furo[2,3-d]pyrimidine-5-carboxamide], the IC50 was 10 to 100 nM.
The same measure, in the same setting: the value for `Cc1oc2ncnc(NC3(C)CC3)c2c1C(=O)N1CCOCC1` [Example 117, 6-Methyl-N-(1-methylcyclopropyl)-5-(morpholine-4-carbonyl)furo[2,3-d]pyrimidin-4-amine] was 100 to 1000 nM; that for `Cc1oc2ncnc(NC3(C)CC3)c2c1C(=O)N1CCOC(c2ccccn2)C1` (centres unmarked) [Example 118, 6-Methyl-N-(1-methylcyclopropyl)-5-[2-(pyridin-2-yl)morpholine-4-carbonyl]furo[2,3-d]pyrimidin-4-amine] was 10 to 100 nM; that for `Cc1oc2ncnc(NC3(C)CC3)c2c1C(=O)N1CCOC(c2ccncc2)C1` (centres unmarked) [Example 119, 6-Methyl-N-(1-methylcyclopropyl)-5-[2-(pyridin-4-yl)morpholine-4-carbonyl]furo[2,3-d]pyrimidin-4-amine] was 100 to 1000 nM.
The same measure, in the same setting: next, `Cc1oc2ncnc(NC3(C)CC3)c2c1C(=O)N1CCOC(c2cccnc2)C1` (centres unmarked) [Example 120, 6-Methyl-N-(1-methylcyclopropyl)-5-[2-(pyridin-3-yl)morpholine-4-carbonyl]furo[2,3-d]pyrimidin-4-amine]: 100 to 1000 nM; `Cc1oc2ncnc(NC3(C)CC3)c2c1C(=O)N1CCOC(c2cnn(C)c2)C1` (centres unmarked) [Example 121, 6-Methyl-5-[2-(1-methyl-1H-pyrazol-4-yl)morpholine-4-carbonyl]-N-(1-methylcyclopropyl)furo[2,3-d]pyrimidin-4-amine]: 100 to 1000 nM.
Still for that read-out and setting: next, `COc1ccc(C2CN(C(=O)c3c(C)oc4ncnc(NC5(C)CC5)c34)CCO2)cc1` (centres unmarked) [Example 123, 5-[2-(4-Methoxyphenyl)morpholine-4-carbonyl]-6-methyl-N-(1-methylcyclopropyl)furo[2,3-d]pyrimidin-4-amine]: 100 to 1000 nM.
Consider `Cc1oc2ncnc(NC3(C)CC3)c2c1C(=O)NC1CC1` [Example 124, N-Cyclopropyl-6-methyl-4-[(1-methylcyclopropyl)amino]furo[2,3-d]pyrimidine-5-carboxamide], for which the IC50 was 10 to 100 nM.
As to `Cc1oc2ncnc(NC3(C)CC3)c2c1C(=O)NCCF` [Example 125, N-(2-Fluoroethyl)-6-methyl-4-[(1-methylcyclopropyl)amino]furo[2,3-d]pyrimidine-5-carboxamide], the IC50 is 10 to 100 nM.
Still for that read-out and setting: next, `Cc1oc2ncnc(NC3(C)CC3)c2c1C(=O)N[C@H]1C[C@H](F)C1` [Example 126, 6-Methyl-4-[(1-methylcyclopropyl)amino]-N-[(1R,3R)-3-fluorocyclobutyl]furo[2,3-d]pyrimidine-5-carboxamide]: 10 to 100 nM.
In the case of `Cc1oc2ncnc(NC3(C)CC3)c2c1C(=O)N[C@H]1C[C@@H](F)C1` [Example 127, 6-Methyl-4-[(1-methylcyclopropyl)amino]-N-[(1S,3S)-3-fluorocyclobutyl]furo[2,3-d]pyrimidine-5-carboxamide], the IC50 was 100 to 1000 nM.
`Cc1oc2ncnc(NC3(C)CC3)c2c1C(=O)NC1CC(F)(F)C1` [Example 128, N-(3,3-Difluorocyclobutyl)-6-methyl-4-[(1-methylcyclopropyl)amino]furo[2,3-d]pyrimidine-5-carboxamide]: the IC50 was 100 to 1000 nM.
On the same count and under the same terms, next, `Cc1oc2ncnc(NC3(C)CC3)c2c1C(=O)NC1(C2CC2)CCOCC1` [Example 129, N-(4-Cyclopropyloxan-4-yl)-6-methyl-4-[(1-methylcyclopropyl)amino]furo[2,3-d]pyrimidine-5-carboxamide]: 10 to 100 nM.
